Data taken from patent US20240402196A1 (Exact Sciences Corporation, priority 2018, published 2024).
Read-outs that look alike come from different tables or passages of the source. Blank lines part the entries; values can stand above or below the molecule they belong to.

Target: hemoglobin in stool samples (Homo sapiens, UniProt P68871+P69905)
Experiment: Accelerated shipping simulation (35C 16 hour challenge), hemoglobin % recovery by ELISA;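 note: stool hemoglobin measured by ELISA before and after thermal-cycler shipping stress, stability given as percent of pre-stress hemoglobin recovered afterwards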
Design: from tissue; host or cells: stool samples

Sequence of hemoglobin in stool samples (P69905 2-142 limits assumed): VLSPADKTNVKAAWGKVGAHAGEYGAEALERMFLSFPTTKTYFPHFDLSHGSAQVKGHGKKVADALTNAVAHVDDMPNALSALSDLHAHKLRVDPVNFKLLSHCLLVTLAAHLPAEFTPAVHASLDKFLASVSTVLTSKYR
Sequence of hemoglobin in stool samples (P68871 2-147 limits assumed): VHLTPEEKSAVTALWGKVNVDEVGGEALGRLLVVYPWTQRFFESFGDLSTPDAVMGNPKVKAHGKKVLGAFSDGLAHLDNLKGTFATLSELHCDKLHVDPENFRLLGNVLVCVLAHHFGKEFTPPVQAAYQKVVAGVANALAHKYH

Results (additive concentration 0.00003%): No Improvement
Results (additive concentration 0.00030%): No Improvement
Results (additive concentration 0.00300%): No Improvement
Results (additive concentration 0.03000%): No Improvement
Molecule: C=CC1=C(C)/C(=C/C2=NC(=C\c3[nH]c(/C=C4\NC(=O)C(C)=C4C=C)c(C)c3CCC(=O)O)/C(CCC(=O)O)=C2C)NC1=O [Biliverdin]

Results (Additive Concentration 0.1 uM): No Improvement
Results (Additive Concentration 1 uM): No Improvement
Results (additive concentration 5 uM): No Improvement
Results (additive concentration 0.01 mM): No Improvement
Results (additive concentration 0.1 mM): No Improvement
Results (additive concentration 1 mM): No Improvement
Results (additive concentration 10 mM): No Improvement
Molecule: O=C([O-])CC[C@@H](C(=O)[O-])N(CC(=O)[O-])CC(=O)[O-].[Na+].[Na+].[Na+].[Na+]

Results (additive concentration 10 uM): No Improvement
Results (additive concentration 100 uM): No Improvement
Results (additive concentration 1 mM): No Improvement
Results (additive concentration 10 mM): No Improvement
Molecule: O=C(O)CC(NCCNC(CC(=O)O)C(=O)O)C(=O)O (centres unmarked)

Results (additive concentration 0.0005 mM): No Improvement
Results (additive concentration 0.5 uM): No Improvement
Results (additive concentration 0.002 mM): No Improvement
Results (additive concentration 5 uM): No Improvement
Results (additive concentration 50 uM): No Improvement
Results (additive concentration 1 mM): No Improvement
Molecule: O=C(O)[C@@H](COP(=O)(O)O)OP(=O)(O)O [Diphosphoglycerate (DPG)]

Results (additive concentration 6 uM): Improvement in % Hb
Molecule: C=CC1=C(C)c2cc3[n-]c(cc4[n-]c(cc5nc(cc1n2)C(C)=C5C=C)c(C)c4CCC(=O)O)c(CCC(=O)O)c3C.O.[Fe+2] [Hematin]

Results (additive concentration 1.25 uM): Improvement in % Hb
Results (additive concentration 5 uM): Improvement in % Hb
Molecule: C=CC1=C(C)c2cc3[n-]c(cc4nc(cc5[n-]c(cc1n2)c(C)c5C=C)C(C)=C4CCC(=O)O)c(CCC(=O)O)c3C.[Cl-].[Co+3] [Protoporphyrin IX Cobalt (Vendor 2)]

Results (additive concentration 1.25 uM): Improvement in % Hb
Results (additive concentration 5 uM): Improvement in % Hb
Molecule: C=CC1=C(C)c2cc3[n-]c(cc4nc(cc5[n-]c(cc1n2)c(C)c5C=C)C(C)=C4CCC(=O)O)c(CCC(=O)O)c3C.[Cl-].[Co+3] [Protoporphyrin IX Cobalt (Vendor 3)]

Results (additive concentration 5 uM): No Improvement
Results (additive concentration 10 uM): No Improvement
Results (additive concentration 100 uM): No Improvement
Molecule: O=C(/C=C/C(=O)Oc1c(Br)cc(Br)cc1C(=O)O)Oc1c(Br)cc(Br)cc1C(=O)O [Bis(3,5-dibromosalilcyl)fumarate]

Results (additive concentration 1.25 uM): Improvement in % Hb
Results (additive concentration 5 uM): Improvement in % Hb
Molecule: C=CC1=C(C)c2cc3[n-]c(cc4nc(cc5[n-]c(cc1n2)c(C)c5C=C)C(C)=C4CCC(=O)O)c(CCC(=O)O)c3C.[Cl-].[Co+3] [Protoporphyrin IX Cobalt (Vendor 1)]

Results (additive concentration 10 mM): No Improvement
Molecule: O=C(O)CC(NC(CC(=O)O)C(=O)O)C(=O)O (centres unmarked) [Iminodisuccinic acid]

Results (additive concentration 10 uM): No Improvement
Results (additive concentration 100 uM): No Improvement
Results (additive concentration 1 mM): No Improvement
Results (additive concentration 3 mM): No Improvement
Molecule: N[C@@H](CCC(=O)N[C@@H](CS)C(=O)NCC(=O)O)C(=O)O [Glutathione]

Results (additive concentration 5 mM): No Improvement
Results (additive concentration 10 mM): No Improvement
Results (additive concentration 30 mM): No Improvement
Molecule: O=C([O-])CN(CCN(CC(=O)[O-])CC(=O)O)CC(=O)O.[Na+].[Na+] [EDTA: Disodium Salt]

Results (additive concentration 0.6 uM): No Improvement
Results (additive concentration 6 uM): No Improvement
Results (additive concentration 60 uM): No Improvement
Molecule: O=c1[nH]c(=O)c2[nH]c(=O)[nH]c2[nH]1 [Uric Acid]

Results (additive concentration 1.25 uM): Improvement in % Hb
Results (additive concentration 5 uM): Improvement in % Hb
Molecule: C=CC1=C(C)c2cc3[n-]c(cc4nc(cc5[n-]c(cc1n2)c(C)c5C=C)C(C)=C4CCC(=O)O)c(CCC(=O)O)c3C.[Cl-].[Cr+3] [Protoporphyrin IX Chromium (Vendor 1)]

Results (additive concentration 1.25 uM): No Improvement
Results (additive concentration 5 uM): No Improvement
Molecule: C=CC1=C(C)c2cc3[n-]c(cc4nc(cc5[n-]c(cc1n2)c(C)c5C=C)C(C)=C4CCC(=O)O)c(CCC(=O)O)c3C.[Cl-].[Ga+3] [Protoporphyrin IX Gallium]

The remaining lines, values behind:

Molecule: C1N2CN3CN1CN(C2)C3 [Hexamethylenetetramine]
Results (additive concentration 14 mM): No Improvement
Results (additive concentration 140 mM): No Improvement
Results (additive concentration 500 mM): No Improvement

Molecule: CC(C(=O)[O-])N(CC(=O)[O-])CC(=O)[O-].O.[Na+].[Na+].[Na+] (centres unmarked)
Results (additive concentration 0.1 mM): No Improvement
Results (additive concentration 1 mM): No Improvement
Results (additive concentration 10 mM): No Improvement

Molecule: O=S(=O)([O-])CCCS(=O)(=O)[O-].[Na+].[Na+] [Propanedisulfonic acid disodium salt]
Results (additive concentration 0.4 mM): No Improvement
Results (additive concentration 4 mM): No Improvement
Results (additive concentration 40 mM): No Improvement

Molecule: Deferoxamine Mesylate Salt
Results (additive concentration 10 uM): No Improvement
Results (additive concentration 100 uM): No Improvement
Results (additive concentration 1 mM): No Improvement
Results (additive concentration 5 mM): No Improvement

Molecule: OC[C@H]1O[C@H](OC[C@H]2O[C@H](O[C@]3(CO)O[C@H](CO)[C@@H](O)[C@@H]3O)[C@H](O)[C@@H](O)[C@@H]2O)[C@H](O)[C@@H](O)[C@H]1O [Raffinose]
Results (additive concentration 5 uM): No Improvement
Results (additive concentration 50 uM): No Improvement
Results (additive concentration 5 mM): No Improvement
Results (additive concentration 24 mM): No improvement

Molecule: O[C@H](CS)[C@H](O)CS (racemic) [Dithiothreitol]
Results (Additive Concentration 1 uM): No Improvement
Results (additive concentration 10 uM): No Improvement
Results (additive concentration 0.1 mM): No Improvement
Results (additive concentration 1 mM): No Improvement

Molecule: O=C(O)CCP(CCC(=O)O)CCC(=O)O [TCEP]
Results (additive concentration 0.005 mM): No Improvement
Results (additive concentration 0.01 mM): No Improvement
Results (additive concentration 0.1 mM): No Improvement
Results (additive concentration 250 uM): No Improvement
Results (additive concentration 500 uM): No Improvement
Results (additive concentration 750 uM): No Improvement
Results (additive concentration 1 mM): No Improvement

Molecule: O=S([O-])([O-])=S.[Na+].[Na+] [Sodium Thiosulfate]
Results: No Improvement

Molecule: O=c1c(-c2ccc(O)cc2)coc2cc(O)ccc12 [Daidzein]
Results (additive concentration 0.01 mM): No Improvement
Results (additive concentration 0.1 mM): No Improvement
Results (additive concentration 1 mM): No Improvement

Molecule: CC1=NCC[C@@H](C(=O)O)N1 [Ectoine]
Results (additive concentration 0.718 mM): No Improvement
Results (additive concentration 5 mM): No Improvement

Molecule: N[C@@H](Cc1c[nH]cn1)C(=O)O [Histidine]
Results (additive concentration 0.0028 mM): No Improvement
Results (additive concentration 0.0228 mM): No Improvement
Results (additive concentration 0.228 mM): No Improvement

Molecule: N[C@@H](CS)C(=O)O [Cysteine]
Results (Additive Concentration 0.1 uM): No Improvement
Results (Additive Concentration 1 uM): No Improvement
Results (additive concentration 5 uM): No Improvement
Results (additive concentration 0.01 mM): No Improvement
Results (additive concentration 0.1 mM): No Improvement
Results (additive concentration 1 mM): No Improvement
Results (additive concentration 10 mM): No Improvement

Molecule: NCCCC[C@H](N)C(=O)O [Lysine]
Results (additive concentration 0.0687 mM): No Improvement
Results (additive concentration 0.687 mM): No Improvement
Results (additive concentration 6.87 mM): No Improvement

Molecule: O=C(O)CCCCC1CCSS1 (racemic) [(±)-α-Lipoic acid]
Results (additive concentration […]): No Improvement

Molecule: c1c[nH]cn1 [Imidazole]
Results (additive concentration 25 uM): No Improvement
Results (additive concentration 0.5 mM): No Improvement

Molecule: C=CCn1cc[n+](C)c1.[Cl-] [1-Allyl-3-methylimidazolium Chloride]
Results (additive concentration 0.01 mM): No Improvement
Results (additive concentration 0.1 mM): No Improvement
Results (additive concentration 1 mM): No Improvement

Molecule: NCC(=O)O [Glycine (no sample)]
Results: No improvement

Molecule: O=S(=O)([O-])CS(=O)(=O)[O-].[K+].[K+] [Methanedisulfonic acid dipotassium salt]
Results (additive concentration 10.69 mM): No Improvement
